US11072634B2, “Inhibitors of transglutaminases” (Zedira GmbH, priority 2016, dated 2021)

Legend:
[1] = test system: Htt-exon1-97Q transfected N2a-cells; experiment: ELISA of huntingtin and isopeptide bonds in SDS-soluble and formic acid soluble cell extracts; format: cell-based, mouse; details: N2a Htt-exon1-97Q, 150 or 300 μM, both extracts
Protocol: A) Detection of huntingtin (htt) in an ELISA-Assay. Microtiter plate wells were coated with SDS-soluble and formic acid solubilized extracts of Htt-exon1-97Q transfected N2a-cells grown in the presence of 150 and 300 μM TG2-inhibitor E22. Anti-Htt-antibody 1C2 (1:250, Millipore, MAB1574) was used as detection antibody, followed by a conventional ELISA-protocol.
B) Detection of isopeptide bonds in an ELISA-Assay. Microtiter plate wells were coated with SDS-soluble and formic acid solubilized extracts of Htt-exon1-97Q transfected N2a-cells grown in the presence of 150 and 300 μM TG2-inhibitor E22. Antibody A023 (1:200, Zedira) recognizing N^ε-(γ-L-glutamyl)-L-lysine-isopeptide was used as detection antibody, followed by a conventional ELISA-protocol. […]
SDS-soluble and formic acid soluble extracts were used subsequently for coating of 96-well micro-titer-plates. […] Extinction was measured at 450 nm in a plate reader device.
In order to analyze the effect of E22 on huntingtin aggregation and cross-linking, Htt-exon1-97Q transfected N2a-cells were grown in presence of 150 or 300 μM TG2-blacker E22. SDS-soluble and formic acid soluble extracts were generated and huntingtin and cross-links (isopeptide bonds) were determined in an ELISA-format as described above.

[2] = molecular target: T1, TG2 (Rattus norvegicus, UniProt Q9WVJ6); experiment: TG2 activity in NRK52E cell homogenates (Tissue Transglutaminase Pico-Assay Kit); format: cell-based; details: 6/24/36 mM glucose, 10-100 μM inhibitor
T1 construct: endogenous in cells; host or cells: NRK52E
T1 sequence (Q9WVJ6 1-686): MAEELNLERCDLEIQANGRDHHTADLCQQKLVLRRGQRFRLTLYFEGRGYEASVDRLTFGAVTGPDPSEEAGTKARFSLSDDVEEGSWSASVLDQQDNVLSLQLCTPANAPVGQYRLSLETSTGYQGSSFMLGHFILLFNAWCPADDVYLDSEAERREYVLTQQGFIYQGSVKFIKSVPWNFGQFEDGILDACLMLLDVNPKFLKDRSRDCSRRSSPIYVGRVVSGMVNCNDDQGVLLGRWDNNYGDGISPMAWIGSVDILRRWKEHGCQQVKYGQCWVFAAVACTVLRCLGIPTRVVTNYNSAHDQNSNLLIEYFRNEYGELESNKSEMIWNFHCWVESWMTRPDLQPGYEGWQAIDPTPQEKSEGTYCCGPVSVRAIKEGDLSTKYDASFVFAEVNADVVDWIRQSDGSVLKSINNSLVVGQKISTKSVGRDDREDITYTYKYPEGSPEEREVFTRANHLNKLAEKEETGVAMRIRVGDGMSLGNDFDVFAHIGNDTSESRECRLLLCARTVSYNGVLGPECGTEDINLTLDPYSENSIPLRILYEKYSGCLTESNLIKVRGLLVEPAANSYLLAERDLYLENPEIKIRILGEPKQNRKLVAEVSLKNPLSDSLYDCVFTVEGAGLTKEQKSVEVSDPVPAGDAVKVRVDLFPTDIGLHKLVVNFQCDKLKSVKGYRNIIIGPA
Protocol: Fibrosis is a hallmark in diabetic nephropathy and chronic kidney diseases. Proximal tubular epithelial cells show increased TG2 activity and increased extracellular matrix proteins (ECM) accumulation under hyperglycemic conditions. ECM accumulation is a hall mark of fibrosis. […] TG2-activity and ECM-accumulation was measured. Rattus norvegicus kidney derived cell line NRK52E was grown at 37° C. in a humidified atmosphere at 5% (v/v) CO2 in DMEM (Dulbecco's modified Eagle's medium) containing 100 μg/mL streptomycin, 100 units/ml penicillin, […], and 10% (v/v) fetal calf serum. For simulation of normal physiological conditions 6 mM D-glucose were added to the medium, while addition of 24 mM and 36 mM D-glucose simulated hyperglycemic conditions. Reversible TG2 inhibitor E06 in the concentrations indicated in FIG. 1A was added at the time of plating to the medium. Reversible TG2 inhibitor E22 in the concentrations indicated in FIG. 2A was added at the time of plating to the medium.
TG2-activity was determined in cell homogenates. […]
TG2-activity was measured using the TG2-selective Tissue Transglutaminase Pico-Assay Kit (#M003, Zedira, Darmstadt, Germany) according to the manufacturer's instructions. […]

Row | TG2 activity determined in the cell homogenates [2] | Structure (SMILES) | protein cross-linking (isopeptide bonds) [1]
1 | decreases | CCCCCNC(=O)C(=O)CC[C@H](NC(=O)[C@@H]1CCCN1C(C)=O)C(=O)Nc1cccn(CC(=O)NCC(CC)CC)c1=O [Compound E22, (S)-2-((S)-1-acetylpyrrolidine-2-carboxamido)-N1-(1-(2-(2-ethylbutylamino)-2-oxoethyl)-2-oxo-1,2-dihydropyridin-3-yl)-5-oxo-N6-pentylhexanediamide] | reduces protein cross-linking in a dose dependent manner
2 | decreases | CC(=O)N[C@@H](CCC(=O)C(N)=O)C(=O)N1CCN(c2ccccc2Cl)CC1 [Compound E06, (S)-5-acetamido-6-(4-(2-chlorophenyl)piperazin-1-yl)-2,6-dioxohexanamide] | 
